# Assay results from patent US20120122870A1, “Treatment Of Ischemia-Reperfusion Injury” (MUSC FOUNDATION FOR RESEARCH DEVELOPMENT, priority 2009, published 2012).
# “Also recorded” adds a separate entry of the source.
# What was measured:
# [1] = system: severe kidney ischemia-reperfusion in mice; test: Ischemia-reperfusion of the kidney (severe model), survival, BUN and creatinine; format: in vivo
# Procedure: ABC294640 promotes survival in a severe model of kidney damage. To evaluate the protective effects of ABC294640 in a more severe IR model, mice were treated with ABC294640 (50 mg/kg in 0.1 mL by oral gavage) or vehicle (0.1 ml in 0.375% Tween-80 in PBS), and then the right kidney was ligated and removed and the left kidney pedicle was clamped for 45 min before reperfusion. Animals were assessed daily for postoperative health, including scoring for weight loss, activity and appearance. Following severe IR, vehicle-treated mice consistently died or were sacrificed because of severe ill health on post-surgery Day 2 (FIG. 3). In marked contrast, mice that received 50 mg/kg ABC294640 preoperatively all survived the IR insult.
# ABC294640 protects against renal failure in a severe model of kidney damage. Blood was drawn from the severe IR mice at sacrifice, and levels of blood urea nitrogen (BUN) and creatinine were determined as indicators of renal function (FIG. 4). As expected, serum creatinine and BUN levels were highly elevated in the vehicle-treated IR animals (clear bars) compared with sham animals (hatched bars), indicative of post-surgical renal failure.
# Ischemia-reperfusion of the kidney (severe model): The irreversible model was performed in a similar manner to the reversible model described above with the exception that the right kidney pedicle was tied off and the kidney removed and the left kidney was clamped for 45 minutes.
# [2] = system: kidney ischemia-reperfusion in C57/Bl6 mice; test: Ischemia-reperfusion of the kidney (mild model), BUN and creatinine; format: in vivo; conditions: 50 mg/kg oral gavage
# Procedure: ABC294640 reduces kidney damage following ischemia-reperfusion. Male C57/Bl6 mice (approximately 24 g) were first dosed with ABC294640 (50 mg/kg in 0.1 mL by oral gavage) or vehicle (0.1 mL in 0.375% Tween 80 in Phosphate-Buffered Saline), immediately followed by intraperitoneal injection of ketamine/xylazine for anesthesia. The procedure was performed on a heated surface using homeothermic pads to ensure the maintenance of animal body temperature. A midline incision was made and the two renal pedicles were located and clamped for 22 minutes or 25 minutes as indicated. Total blockage of the renal pedicle and thus artery was confirmed after several minutes as the kidney were seen to be dark red to purple in color, assuring correct clamp placement. […] One milliliter of pre-warmed (37° C.) sterile saline was instilled into the peritoneum at the time of closing using sutures for musculature and wound clips for the skin incision. Animals were maintained on homeothermic pads until awakening from anesthesia and post-operatively assessed for health.
# Levels of blood urea nitrogen (BUN) were determined as an indicator of renal function. […] Therefore, the SK inhibitor substantially improves kidney function that persists for at least 3 days after drug administration.
# ABC294640 reduces kidney damage following ischemia-reperfusion. Kidney ischemia-reperfusion was repeated as in Example 1, except that the duration of bilateral pedicle clamping was 25 minutes and animals were sacrificed 24 hours after surgery.
# Ischemia-reperfusion of the kidney (mild model): Male C57/Bl6 mice (approximately 24 g) were first dosed with ABC294640 (50 mg/kg in 0.1 ml by oral gavage) or vehicle (0.1 ml in 0.375% Tween 80 in Phosphate-Buffered Saline), immediately followed by intraperitoneal injection of ketamine/xylazine for anesthesia. The procedure was performed on a heated surface using homeothermic pads to ensure the maintenance of animal body temperature. […] Animals were maintained on homethermic pads until awakening from anesthesia and post-operatively assessed for health.
# [3] = severe kidney IR, 48 hr (2 days) post-surgery
# [4] = severe kidney IR, post-surgery Day 10
# [5] = 25 minutes bilateral clamping, 24 hours after reperfusion
compound,measurement,setting,value
"O=C(NCc1ccncc1)C12CC3CC(C1)CC(c1ccc(Cl)cc1)(C3)C2 [ABC294640, 3-(4-chlorophenyl)-N-(pyridin-4-ylmethyl)adamantane-1-carboxamide]",survival after severe kidney IR,"[1]; 50 mg/kg oral gavage preoperatively, right kidney removed, left pedicle clamped 45 min",all survived
same,survival time after severe kidney IR,"[1]; 50 mg/kg oral gavage, right kidney removed, left kidney clamped 45 minutes",at least 9 days
same,postoperative health at sacrifice,"[1]; severe kidney IR, 50 mg/kg, post-surgery Day 9, 50 mg/kg",in good health; also recorded: appeared robust and were gaining weight
same,BUN vs vehicle,[1]; [3],significantly reduced
same,serum creatinine vs vehicle,[1]; [3],significantly reduced
same,BUN,[1]; [4],returned to normal; also recorded: returning to normal
same,serum creatinine,[1]; [4],returned to normal; also recorded: returning to normal
same,BUN levels vs vehicle,[2]; [5],significantly lower; also recorded: substantially lower
same,creatinine levels vs vehicle,[2]; [5],significantly lower; also recorded: substantially lower
same,BUN levels vs vehicle,"[2]; bilateral renal pedicle clamping, 72 hours after reperfusion",significantly lower
